Test results published in patent USRE47739E1, “2-(pyridin-2-ylamino)-pyrido[2,3-D]pyrimidin-7-ones” (Warner-Lambert Company LLC, priority 2002, dated 2019).

What was measured:
Cdk4/Cyclin D = Cdk4/Cyclin D (Homo sapiens, UniProt P11802); assay: Assay for Inhibition of Cdk4/Cyclin D; format: biochemical; settings: 25 μM ATP, retinoblastoma protein substrate, 25° C., 15 minutes
Description: (§1) The assays were carried out as described below.
Assay for Inhibition of Cdk4/Cyclin D
The Cdk4 enzyme assay for IC50 determination and kinetic evaluation is performed as follows. 96-well filter plates (Millipore MADVN6550) are used. […] Buffer A containing excess EDTA was used to determine the level of background ^32P in the absence of enzyme activity. All components except the ATP are added to the wells, and the plate is placed on a plate mixer for 2 minutes. The reaction is started by adding [^32P]ATP, and the plate is incubated at 25° C. for 15 minutes. The reaction is terminated by addition of 0.1 mL 20% trichloroacetic acid (TCA). The plate is kept at 4° C. for at least 1 hour to allow the substrate to precipitate. The wells are then washed five times with 0.2 mL 10% TCA, and ^32P incorporation is determined with a beta plate counter (Wallac Inc., Gaithersburg, Md.).

Cdk2/Cyclin A = Cdk2/Cyclin A (Homo sapiens, UniProt P24941); assay: Assay for Inhibition of Cdk2/Cyclin A; format: biochemical; settings: 12 mM ATP (so in the source), retinoblastoma protein substrate, 25° C., 15 minutes
Description: as §1
Assay for Inhibition of Cdk2/Cyclin A
Cdk2 enzyme assays for IC50 determinations and kinetic evaluation are performed as follows. 96-well filter plates (Millipore MADVN6550) are used. […] All components except the ATP are added to the wells, and the plate is placed on a plate mixer for 2 minutes. The reaction is initiated by addition of [^32P]ATP, and the plate is incubated at 25° C. for 15 minutes. The reaction is terminated by addition of 0.1 mL 20% TCA. The plate is kept at 4° C. for at least 1 hour to allow the substrate to precipitate. The wells are then washed five times with 0.2 mL 10% TCA, and ^32P incorporation is determined with a beta plate counter (Wallac Inc., Gaithersburg, Md.).

[1] = target: FGF receptor (FGFr) tyrosine kinase (Homo sapiens, UniProt P11362); assay: Assay for Inhibition of FGFr; format: biochemical; settings: 50 μM ATP, Poly (4:1) glutamate-tyrosine substrate, 25° C.
Sequence of FGF receptor (FGFr) tyrosine kinase (P11362 22-822): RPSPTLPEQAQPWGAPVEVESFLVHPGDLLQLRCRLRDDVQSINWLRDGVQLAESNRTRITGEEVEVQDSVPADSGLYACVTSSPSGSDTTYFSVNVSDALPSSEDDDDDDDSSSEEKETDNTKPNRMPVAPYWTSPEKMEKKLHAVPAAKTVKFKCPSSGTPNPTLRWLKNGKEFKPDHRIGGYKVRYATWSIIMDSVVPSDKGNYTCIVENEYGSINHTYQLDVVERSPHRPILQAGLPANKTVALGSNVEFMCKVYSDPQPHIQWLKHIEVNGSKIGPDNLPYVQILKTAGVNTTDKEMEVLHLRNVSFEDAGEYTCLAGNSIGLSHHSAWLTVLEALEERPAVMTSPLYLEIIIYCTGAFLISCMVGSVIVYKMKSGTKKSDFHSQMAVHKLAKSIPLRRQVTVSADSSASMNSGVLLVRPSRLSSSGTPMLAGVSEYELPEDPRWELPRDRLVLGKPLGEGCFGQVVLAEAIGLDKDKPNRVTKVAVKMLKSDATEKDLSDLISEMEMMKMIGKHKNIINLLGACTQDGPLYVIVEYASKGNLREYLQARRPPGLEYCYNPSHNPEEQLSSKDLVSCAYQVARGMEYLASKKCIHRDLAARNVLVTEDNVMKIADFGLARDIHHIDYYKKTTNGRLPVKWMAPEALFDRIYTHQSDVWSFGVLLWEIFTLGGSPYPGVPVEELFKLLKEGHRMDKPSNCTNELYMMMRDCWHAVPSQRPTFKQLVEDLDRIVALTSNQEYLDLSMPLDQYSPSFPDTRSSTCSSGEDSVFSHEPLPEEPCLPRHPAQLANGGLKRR
Description: as §1
Assay for Inhibition of FGFr
For FGF receptor (FGFr) tyrosine kinase assays 96-well plates (100 μL/incubation/well), and conditions are optimized to measure the incorporation of ^32P from [γ^32P]ATP into a glutamate-tyrosine co-polymer substrate. Briefly, to each well is added 82.5 μL incubation buffer B (25 mM Hepes (pH 7.0), 150 mM NaCl, 0.1% Triton X-100, 0.2 mM PMSF, 0.2 mM Na3VO4, 10 mM MnCl2) and 750 μg/mL Poly (4:1) glutamate-tyrosine followed by 2.5 μL of the test compound in buffer B and 5 μL of a 7.5 μg/μL FGFr solution to initiate the reaction. Following a 10-minute incubation at 25° C., […] [γ^32P]ATP (0.4 μCi plus 50 μM ATP) is added to each well, and samples are incubated for an additional 10 minutes at 25° C. The reaction is terminated by the addition of 100 μL 30% trichloroacetic acid (TCA) containing 20 mM sodium pyrophosphate and precipitation of material onto glass fiber mats (Wallac). […] Nonspecific activity is defined as radioactivity retained on the filters following incubation of samples with buffer alone (no enzyme). Specific enzymatic activity (enzyme plus buffer) is defined as total activity minus nonspecific activity.

neointima formation = settings: rats; cited from earlier work

Sequence of Cdk4/Cyclin D (P11802 whole entry, species assumed): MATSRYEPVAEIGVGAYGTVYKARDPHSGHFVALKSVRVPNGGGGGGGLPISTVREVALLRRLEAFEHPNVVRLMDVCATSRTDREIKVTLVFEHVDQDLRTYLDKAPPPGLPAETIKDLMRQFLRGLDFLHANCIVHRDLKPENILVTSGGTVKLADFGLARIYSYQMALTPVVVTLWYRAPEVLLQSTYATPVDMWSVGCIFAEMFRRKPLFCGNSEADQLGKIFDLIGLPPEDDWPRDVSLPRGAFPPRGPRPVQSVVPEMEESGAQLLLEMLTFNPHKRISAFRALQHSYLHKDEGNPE
Sequence of Cdk4/Cyclin D (P24385 whole entry partner, species assumed): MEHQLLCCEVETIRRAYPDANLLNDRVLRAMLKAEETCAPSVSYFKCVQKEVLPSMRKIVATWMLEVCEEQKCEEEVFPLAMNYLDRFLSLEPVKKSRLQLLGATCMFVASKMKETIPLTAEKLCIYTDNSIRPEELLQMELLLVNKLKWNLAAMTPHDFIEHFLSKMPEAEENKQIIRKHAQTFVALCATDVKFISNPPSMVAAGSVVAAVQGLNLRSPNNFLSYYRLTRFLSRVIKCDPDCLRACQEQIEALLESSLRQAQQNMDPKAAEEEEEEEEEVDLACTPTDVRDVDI

SMILES | IC50 (Cdk4/Cyclin D) [µM] | IC50 (Cdk2/Cyclin A) [µM] | IC50 [1] [µM] | melting point [°C] | inhibition of neointima formation (neointima formation)
COCCN(CCOC)c1ccc(Nc2ncc3c(C)c(C(C)=O)c(=O)n(C4CCCC4)c3n2)nc1 [Example 55, 6-Acetyl-2-{5-[bis-(2-methoxy-ethyl)-amino]-pyridin-2-ylamino}-8-cyclopentyl-5-methyl-8H-pyrido[2,3-d]pyrimidin-7-one] | 0.024 | > 5 | > 5 | 138 | 
COc1ccc(CNc2nc(N(CCO)CCO)nc3c2ncn3C(C)C)cc1 [CVT-313] |  |  |  |  | greater than 80%

Continued, in another order:

IC50 (Cdk4/Cyclin D) [µM] | IC50 (Cdk2/Cyclin A) [µM] | IC50 [1] [µM] | melting point [°C] | SMILES | inhibition of neointima formation (neointima formation)
0.145 | > 5 | > 5 | > 240 | Cc1c(I)c(=O)n(C2CCCC2)c2nc(Nc3ccc(N4CCNCC4)cn3)ncc12 [Example 50, 8-Cyclopentyl-6-iodo-5-methyl-2-(5-piperazin-1-yl-pyridin-2-ylamino)-8H-pyrido[2,3-d]pyrimidin-7-one] | 
0.43 | 3.3 |  | > 300 | Nc1cccc(Nc2ncc3cc(Br)c(=O)n(C4CCCC4)c3n2)n1 [Example 65, 6-Bromo-8-cyclopentyl-2-(pyridin-2,6-yldiamino)-8H-pyrido[2,3-d]pyrimidin-7-one] | 
> 5 |  | > 5 | 267 to 268 | Cc1c(Br)c(=O)n(C2CCCC2)c2nc(Nc3ccccn3)ncc12 [Example 37, 6-bromo-8-cyclopentyl-5-methyl-2-(pyridin-2-ylamino)-8H-pyrido[2,3-d]pyrimidin-7-one] | 
